One data set is described as follows: Solubility of Compound I. It counts as physicochemical. Here is the method: (§1) The melting range of Compound I is from 120.5-151° C. In both Samples 4A and 4B, the drug loading is 4% or 20 mg/capsule.
The next data set can be described thus: Log P in octanol. It counts as physicochemical. The protocol: as §1

In brackets after ≈: the same amount, converted by molar mass.

By solubility is commonly meant the dissolved amount per volume that the medium holds. Consider `COC(=O)N[C@]1(C)Cc2ccc(NC(=O)c3cccc(C)c3-c3ccc(C(F)(F)F)cc3)cc2C1` [Compound I], for which the solubility in “Solubility of Compound I” was determined as 0.17 µg/mL (≈ 0.352 µM). The “Log P in octanol” value in “Log P in octanol” was 4.66.

Values taken from patent US20080064760A1, “Spontaneously Dispersible Pharmaceutical Composition” (priority 2004, published 2008).
